Assay results: ChEMBL document CHEMBL3046389, “Synthesis and biological evaluation of novel hydroquinone dimethyl ethers as potential anticancer and antimicrobial agents” (2013)
In brackets after ≈: the same amount, converted by molar mass.

Tests used:
Type in all cases: functional
[1] = test system: Pseudomonas aeruginosa; test: Ratio of ampicillin MIC to compound MIC for Pseudomonas aeruginosa ATCC 10145 after 48 hr by two-fold serial broth dilution method
[2] = test system: Candida albicans; test: Antimicrobial activity against Candida albicans DSM 70014 after 48 hr by two-fold serial broth dilution method; details: DSM 70014, 48 h
[3] = test system: Pseudomonas aeruginosa; test: Antimicrobial activity against Pseudomonas aeruginosa ATCC 10145 after 48 hr by two-fold serial broth dilution method; details: ATCC 10145, 48 h
[4] = test system: Staphylococcus aureus; test: Antimicrobial activity against Staphylococcus aureus DSM 1104 after 48 hr by two-fold serial broth dilution method; details: DSM 1104, 48 h
[5] = test system: Escherichia coli; test: Antimicrobial activity against Escherichia coli ATCC 11775 after 48 hr by two-fold serial broth dilution method; details: ATCC 11775, 48 h
[6] = test system: Bacillus subtilis; test: Antimicrobial activity against Bacillus subtilis ATCC 6633 after 48 hr by two-fold serial broth dilution method; details: ATCC 6633, 48 h
[7] = test system: Staphylococcus aureus; test: Antimicrobial activity against Staphylococcus aureus DSM 1104 after 48 hr by two-fold serial broth dilution method relative to ampicillin
[8] = test system: HCT-116; test: Growth inhibition of Homo sapiens (human) HCT116 cells at 10 uM after 48 hr by SRB assay; details: HCT-116, 48 h, read-out: GI
[9] = test system: MDA-MB-468; test: Growth inhibition of Homo sapiens (human) MDA-MB-468 cells at 10 uM after 48 hr by SRB assay; details: MDA-MB-468, 48 h, read-out: GI
[10] = test system: T47D; test: Growth inhibition of Homo sapiens (human) T47D cells at 10 uM after 48 hr by SRB assay; details: read-out: GI
[11] = test system: MCF7; test: Growth inhibition of Homo sapiens (human) MCF7 cells at 10 uM after 48 hr by SRB assay; details: MCF7, 48 h, read-out: GI
[12] = test system: PC-3; test: Growth inhibition of Homo sapiens (human) PC3 cells at 10 uM after 48 hr by SRB assay; details: PC-3, 48 h, read-out: GI
[13] = test system: UO-31; test: Growth inhibition of Homo sapiens (human) UO31 cells at 10 uM after 48 hr by SRB assay; details: UO-31, 48 h, read-out: GI
[14] = test system: NCI-H23; test: Growth inhibition of Homo sapiens (human) NCI-H23 cells at 10 uM after 48 hr by SRB assay; details: NCI-H23, 48 h, read-out: GI
[15] = test system: EKVX; test: Growth inhibition of Homo sapiens (human) EKVX cells at 10 uM after 48 hr by SRB assay; details: read-out: GI
[16] = test system: A549; test: Growth inhibition of Homo sapiens (human) A549/ATCC cells at 10 uM after 48 hr by SRB assay; details: A549, 48 h, read-out: GI
[17] = test system: SR; test: Growth inhibition of Homo sapiens (human) SR cells at 10 uM after 48 hr by SRB assay; details: read-out: GI
[18] = test system: K562; test: Growth inhibition of Homo sapiens (human) K562 cells at 10 uM after 48 hr by SRB assay; details: K562, 48 h, read-out: GI
[19] = test system: HL-60(TB); test: Growth inhibition of Homo sapiens (human) HL-60(TB) cells at 10 uM after 48 hr by SRB assay; details: HL-60, 48 h, read-out: GI
[20] = test system: RXF 393; test: Growth inhibition of Homo sapiens (human) RXF393 cells at 10 uM after 48 hr by SRB assay; details: RXF 393, 48 h, read-out: GI
[21] = test system: CAKI-1; test: Growth inhibition of Homo sapiens (human) CAKI-1 cells at 10 uM after 48 hr by SRB assay; details: CAKI-1, 48 h, read-out: GI
[22] = test system: ACHN; test: Growth inhibition of Homo sapiens (human) ACHN cells at 10 uM after 48 hr by SRB assay; details: read-out: GI
[23] = test system: IGROV-1; test: Growth inhibition of Homo sapiens (human) IGROV1 cells at 10 uM after 48 hr by SRB assay; details: IGROV-1, 48 h, read-out: GI
[24] = test system: UACC-62; test: Growth inhibition of Homo sapiens (human) UACC62 cells at 10 uM after 48 hr by SRB assay; details: UACC-62, 48 h, read-out: GI
[25] = test system: SK-MEL-5; test: Growth inhibition of Homo sapiens (human) SK-MEL-5 cells at 10 uM after 48 hr by SRB assay; details: SK-MEL-5, 48 h, read-out: GI
[26] = test system: MDA-MB-435; test: Growth inhibition of Homo sapiens (human) MDA-MB-435 cells at 10 uM after 48 hr by SRB assay; details: MDA-MB-435, 48 h, read-out: GI
[27] = test system: M14; test: Growth inhibition of Homo sapiens (human) M14 cells at 10 uM after 48 hr by SRB assay; details: M14, 48 h, read-out: GI
[28] = test system: Malme-3M; test: Growth inhibition of Homo sapiens (human) MALME-3M cells at 10 uM after 48 hr by SRB assay; details: read-out: GI
[29] = test system: SF-295; test: Growth inhibition of Homo sapiens (human) SF295 cells at 10 uM after 48 hr by SRB assay; details: SF-295, 48 h, read-out: GI
[30] = test system: KM12; test: Growth inhibition of Homo sapiens (human) KM12 cells at 10 uM after 48 hr by SRB assay; details: KM12, 48 h, read-out: GI
[31] = test system: HCT-15; test: Growth inhibition of Homo sapiens (human) HCT15 cells at 10 uM after 48 hr by SRB assay; details: HCT-15, 48 h, read-out: GI

COc1ccc(OC)c(/C=C/c2nnc(SC)n2-c2ccc(C)cc2)c1
Ratio [1]: 4
MFC [2]: 50 µg/mL (≈ 136 µM)
MIC [2]: 50 µg/mL (≈ 136 µM)
MBC [3]: 25 µg/mL (≈ 68 µM)
MIC [3]: 12.5 µg/mL (≈ 34 µM)
MBC [4]: 50 µg/mL (≈ 136 µM)
MIC [4]: 50 µg/mL (≈ 136 µM)
MBC [5]: 50 µg/mL (≈ 136 µM)
MIC [5]: 50 µg/mL (≈ 136 µM)
MBC [6]: 50 µg/mL (≈ 136 µM)
MIC [6]: 50 µg/mL (≈ 136 µM)

COc1ccc(OC)c(/C=C/c2nnc(S)n2-c2ccc(C)cc2)c1
Activity [7]: 40%
MFC [2]: 50 µg/mL (≈ 141 µM)
MIC [2]: 25 µg/mL (≈ 70.7 µM)
MBC [3]: 50 µg/mL (≈ 141 µM)
MIC [3]: 50 µg/mL (≈ 141 µM)
MBC [4]: 25 µg/mL (≈ 70.7 µM)
MIC [4]: 12.5 µg/mL (≈ 35.4 µM)
MBC [5]: 50 µg/mL (≈ 141 µM)
MIC [5]: 25 µg/mL (≈ 70.7 µM)
MBC [6]: 25 µg/mL (≈ 70.7 µM)
MIC [6]: 12.5 µg/mL (≈ 35.4 µM)

COc1ccc(OC)c(/C=C/c2nnc(SCC(=O)c3cc(O)ccc3O)n2-c2ccc(Cl)cc2)c1
Ratio [1]: 4
MFC [2]: 50 µg/mL (≈ 95.4 µM)
MIC [2]: 25 µg/mL (≈ 47.7 µM)
MBC [3]: 25 µg/mL (≈ 47.7 µM)
MIC [3]: 12.5 µg/mL (≈ 23.9 µM)
MBC [4]: 50 µg/mL (≈ 95.4 µM)
MIC [4]: 50 µg/mL (≈ 95.4 µM)
MBC [5]: 50 µg/mL (≈ 95.4 µM)
MIC [5]: 25 µg/mL (≈ 47.7 µM)
MBC [6]: 25 µg/mL (≈ 47.7 µM)
MIC [6]: 12.5 µg/mL (≈ 23.9 µM)

COc1ccc(OC)c(/C=C/c2nnc(Nc3ccc(C)cc3)s2)c1
MFC [2]: 50 µg/mL (≈ 141 µM)
MIC [2]: 50 µg/mL (≈ 141 µM)
MBC [3]: 100 µg/mL (≈ 283 µM)
MIC [3]: 100 µg/mL (≈ 283 µM)
MBC [4]: 100 µg/mL (≈ 283 µM)
MIC [4]: 100 µg/mL (≈ 283 µM)
MBC [5]: 200 µg/mL (≈ 566 µM)
MIC [5]: 100 µg/mL (≈ 283 µM)
MBC [6]: 100 µg/mL (≈ 283 µM)
MIC [6]: 100 µg/mL (≈ 283 µM)

COc1ccc(OC)c(/C=C/c2nnc(SC)n2-c2ccc(Cl)cc2)c1
inhibition of growth at 10 µM [8]: 40.2%
inhibition of growth at 10 µM [9]: 74.8%
inhibition of growth at 10 µM [10]: 57.2%
inhibition of growth at 10 µM [11]: 53.3%
inhibition of growth at 10 µM [12]: 61.1%
inhibition of growth at 10 µM [13]: 60.4%
MFC [2]: 100 µg/mL (≈ 258 µM)
MIC [2]: 50 µg/mL (≈ 129 µM)
MBC [3]: 50 µg/mL (≈ 129 µM)
MIC [3]: 50 µg/mL (≈ 129 µM)
inhibition of growth at 10 µM [14]: 40.3%
inhibition of growth at 10 µM [15]: 38.6%
inhibition of growth at 10 µM [16]: 35.2%
inhibition of growth at 10 µM [17]: 58.5%
inhibition of growth at 10 µM [18]: 69.3%
inhibition of growth at 10 µM [19]: 34.3%
MBC [4]: 100 µg/mL (≈ 258 µM)
MIC [4]: 100 µg/mL (≈ 258 µM)
inhibition of growth at 10 µM [20]: 40.3%
inhibition of growth at 10 µM [21]: 35.5%
inhibition of growth at 10 µM [22]: 32.1%
MBC [5]: 100 µg/mL (≈ 258 µM)
MIC [5]: 100 µg/mL (≈ 258 µM)
MBC [6]: 100 µg/mL (≈ 258 µM)
MIC [6]: 100 µg/mL (≈ 258 µM)
inhibition of growth at 10 µM [23]: 38.2%
inhibition of growth at 10 µM [24]: 50.5%
inhibition of growth at 10 µM [25]: 46.6%
inhibition of growth at 10 µM [26]: 91.3%
inhibition of growth at 10 µM [27]: 40%
inhibition of growth at 10 µM [28]: 55.2%
inhibition of growth at 10 µM [29]: 53.2%
inhibition of growth at 10 µM [30]: 46.9%
inhibition of growth at 10 µM [31]: 41.1%
